Test results as given in patent publication US12715867B2, “Agonists of free fatty acid receptor 1 and their use in diseases associated with said receptor” (HALO Therapeutics Ltd, priority 2020, dated 2026).

System: C57Bl/6N male mice
Test: OGTT testing in C57Bl/6N male mice (oral glucose tolerance test)
Assay type: in vivo
Conditions: single per os dose 60 min before glucose 2 g/kg; Z1558775684 20 mg/kg, Metformin 300 mg/kg; compared with Vehicle-treated group; 5 mice per group
Description: Values are expressed as means of 5 animals tested. For glucose tolerance test (GTT), mice were orally treated with glucose at dose of 2 g/kg at the dose volume of 10 ml/kg after a 6-hour fasting. Glucose measurements were performed immediately before compound treatment (−60 min), at −30 min, 0 min (before glucose administration), and then 15, 30, 60, 90 and 120 min after glucose administration.
Example 87: OGTT Testing in C57Bl/6N Male Mice
Each experimental group consisted of five male C57Bl/6N mice. Animals were dosed once perorally with 20 mg/kg of tested compound Z1558775684. A control group was dosed with vehicle on the same schedule. Metformin at the dosage of 300 mg/kg was used as reference compound.
Compound Z1558775684 was dissolved/suspended in DMSO—PEG400—physiological saline (20%:50%:30%) at concentration 4 mg/ml. Metformin was dissolved in the same vehicle at concentration 60 mg/ml. The test samples were administered per os in the volume corresponding to 5 ml/kg body weight.
Single doses of test samples were administered 60 min before glucose treatment at 3 p.m.
The blood glucose level was measured after 6-hour fasting using Call Plus glucometer and specific test strips. Blood was obtained from the tail vein by incision of the tail tip, 5-6 μl of blood was used for each assay. […]

Structure (SMILES) | glucose level during oral glucose tolerance test (OGTT)
CN(C)C(=N)N=C(N)N [Metformin] | Statistically significant decrease in glucose level
CCc1nc(N)nc(SCc2ncc(-c3cccc(Cl)c3)o2)n1 [Compound Z1558775684, 4-(((5-(3-chlorophenyl)oxazol-2-yl)methyl)thio)-6-ethyl-1,3,5-triazin-2-amine] | Statistically significant decrease in glucose level
